Source: PMC5788404 (Journal of Medicinal Chemistry, 2017)
“Also recorded” adds a separate entry of the source. Values belong to the compound of their own block, whether it stands above or below them.

Columns and labels:
[1] = molecular target: T1, VBC protein (VHL:ElonginB:ElonginC protein complex) (Homo sapiens, UniProt P40337); format: binding; conditions: based on FP results, GE = ΔpKd/ΔHA (heavy atoms)
T1 construct: made in house

[2] = Intrinsic clearance (Cli) in liver microsomes; format: in vitro ADME; conditions: female CD1 mouse liver microsomes, 0.5 μM compound
[3] = Intracellular drug concentration (accumulation in HeLa cells); format: in vitro ADME, Human; conditions: human; HeLa cell lysate, equilibrium dialysis; read-out: Fraction unbound (fu)
[4] = test system: HeLa cells; test: as above; format: in vitro ADME, Human; conditions: HeLa cells, 50 μM, 2 h
[5] = test system: HIF-1α; test: cells; conditions: Homo sapiens, HeLa, 2 h, read-out: HIF-1α Stabilization (Protein % levels), HeLa cells, 50 μM inhibitor, 2 h, Western blot, normalized to level observed with 1
[6] = molecular target: T2, VBC complex (VHL:ElonginB:ElonginC) (Homo sapiens, UniProt P40337); format: binding; conditions: for LE: LE = −RT ln Kd/NHA; for LE / LLE: on the basis of ITC results; for LLE: LLE = pKd–Log D
T2 construct: made in house
T2 sequence (Q15369 17-112): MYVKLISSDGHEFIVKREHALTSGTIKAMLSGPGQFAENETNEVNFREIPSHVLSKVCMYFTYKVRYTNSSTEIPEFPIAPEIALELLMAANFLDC
T2 sequence (P40337 54-213): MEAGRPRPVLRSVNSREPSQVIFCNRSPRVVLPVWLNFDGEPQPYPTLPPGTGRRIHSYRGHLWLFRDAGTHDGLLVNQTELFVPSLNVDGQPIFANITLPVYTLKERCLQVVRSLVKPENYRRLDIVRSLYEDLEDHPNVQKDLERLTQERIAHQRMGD
T2 sequence (Q15370 1-104, further chain): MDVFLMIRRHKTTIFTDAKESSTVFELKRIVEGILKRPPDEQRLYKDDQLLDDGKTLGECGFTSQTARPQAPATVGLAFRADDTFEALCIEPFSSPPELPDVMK

[7] = Parallel Artificial Membrane Permeability Assay (PAMPA); format: in vitro ADME; conditions: pH 7.4, as printed in text and footnote
[8] = molecular target: T3, immobilized VBC protein (Homo sapiens, UniProt P40337); test: biochemical; format: binding; conditions: for Dissociative t1/2: t1/2 = ln2/koff; for kon: SPR
T3 construct: made in house
T3 sequence (Q15369 17-112): as the sequence (Q15369 17-112) above
T3 sequence (Q15370 1-104, further chain): as the sequence (Q15370 1-104, further chain) above
T3 sequence (P40337 54-213): as the sequence (P40337 54-213) above

[9] = test system: HeLa cells; test: Colony formation assay; format: cell-based, Human; conditions: 150 μM
[10] = test system: HeLa cells; test: Proliferation assay; format: cell-based, Human; conditions: 150 μM, relative to DMSO vehicle

T1 sequence (P40337 54-213): as above
T1 sequence (Q15369 17-112, further chain): as the sequence (Q15369 17-112) above
T1 sequence (Q15370 1-104, further chain): as the sequence (Q15370 1-104, further chain) above

GE (group efficiency) [1]: –0.19
SMILES: Cc1ncsc1-c1ccc(CNC(=O)[C@@H]2C[C@@H](O)CN2C(=O)[C@@H](NC(=O)C2(F)CC2)C(C)O)cc1 (stereo in doubt) [Inhibitor 14, (2S,4R)-1-((2S,3S)-2-(1-Fluorocyclopropanecarboxamido)-3-hydroxybutanoyl)-4-hydroxy-N-(4-(4-methylthiazol-5-yl)benzyl)pyrrolidine-2-carboxamide]

GE (group efficiency) [1]: −0.24
SMILES: Cc1ncsc1-c1ccc(CNC(=O)[C@@H]2C[C@@H](O)CN2C(=O)[C@@H](NC(=O)C(C)(C)F)C(C)(C)C)cc1 [Inhibitor 9, (2S,4R)-1-((S)-2-(2-Fluoro-2-methylpropanamido)-3,3-dimethylbutanoyl)-4-hydroxy-N-(4-(4-methylthiazol-5-yl)benzyl)pyrrolidine-2-carboxamide]

GE (group efficiency) [1]: −0.48
SMILES: Cc1ncsc1-c1ccc(CNC(=O)[C@@H]2C[C@@H](O)CN2C(=O)[C@@H](N2CCCC2=O)C(C)(C)C)cc1 [Inhibitor 12, (2S,4R)-1-((S)-3,3-Dimethyl-2-(2-oxopyrrolidin-1-yl)butanoyl)-4-hydroxy-N-(4-(4-methylthiazol-5-yl)benzyl)pyrrolidine-2-carboxamide]

GE (group efficiency) [1]: –0.01
LE [6]: 0.25 kcal × mol^-1 × NHA^-1
LLE [6]: 5.63 kcal × mol^-1 × NHA^-1
Papp at 5 h, 10 μM [7]: 1.5 ×10⁻⁶ cm/s
Dissociative t1/2 ([8]; 10°C (first value of cell)): 10.04 ± 0.01 s
Dissociative t1/2 ([8]; 20°C (second value of cell)): 4.101 ± 0.007 s
kon ([8]; 10°C): 600000 M⁻¹ s⁻¹
kon ([8]; 20°C): 820000 M⁻¹ s⁻¹
Microsomal stability (intrinsic clearance) [2]: 2.5 mL/min/g
fraction unbound [3]: 0.0008
Compound associated with cells [4]: 100.0 µM
Final free compound concentration in cells [4]: 0.046 µM
SMILES: CC(=O)C1(C(=O)N[C@H](C(=O)N2C[C@H](O)C[C@H]2C(=O)NCc2ccc(-c3scnc3C)cc2)C(C)(C)C)CC1 [Inhibitor 16, (2S,4R)-1-((S)-2-(1-Acetylcyclopropanecarboxamido)-3,3-dimethylbutanoyl)-4-hydroxy-N-(4-(4-methylthiazol-5-yl)benzyl)pyrrolidine-2-carboxamide]

GE (group efficiency) [1]: –0.05
LE [6]: 0.24 kcal × mol^-1 × NHA^-1
LLE [6]: 6.28 kcal × mol^-1 × NHA^-1
SMILES: CC(=O)NC1(C(=O)N[C@H](C(=O)N2C[C@H](O)C[C@H]2C(=O)NCc2ccc(-c3scnc3C)cc2)C(C)(C)C)CC1 [Inhibitor 17, (2S,4R)-1-((S)-2-(1-Acetamidocyclopropanecarboxamido)-3,3-dimethylbutanoyl)-4-hydroxy-N-(4-(4-methylthiazol-5-yl)benzyl)pyrrolidine-2-carboxamide]

GE (group efficiency) [1]: –0.07
LE [6]: 0.25 kcal × mol^-1 × NHA^-1
LLE [6]: 5.38 kcal × mol^-1 × NHA^-1
Dissociative t1/2 ([8]; 10°C (first value of cell)): 4.95 ± 0.01 s
Dissociative t1/2 ([8]; 20°C (second value of cell)): 2.71 ± 0.01 s
kon ([8]; 10°C): 517000 M⁻¹ s⁻¹
kon ([8]; 20°C): 1.1e+06 M⁻¹ s⁻¹
Microsomal stability (intrinsic clearance) [2]: 3.0 mL/min/g
fraction unbound [3]: 0.0008
Compound associated with cells [4]: 204.0 µM
Final free compound concentration in cells [4]: 0.093 µM
SMILES: Cc1ncsc1-c1ccc(CNC(=O)[C@@H]2C[C@@H](O)CN2C(=O)[C@@H](NC(=O)C2CCC2)C(C)(C)C)cc1 [Inhibitor 18, (2S,4R)-1-((S)-2-(Cyclobutanecarboxamido)-3,3-dimethylbutanoyl)-4-hydroxy-N-(4-(4-methylthiazol-5-yl)benzyl)pyrrolidine-2-carboxamide]

Second part, the compound before the results:

SMILES: CC(=O)N[C@H](C(=O)N1C[C@H](O)C[C@H]1C(=O)NCc1ccc(-c2scnc2C)cc1)C(C)(C)C [Inhibitor 1]
Microsomal stability (intrinsic clearance) [2]: 0.7 mL/min/g
fraction unbound [3]: 0.0016
Compound associated with cells [4]: 463.8 µM
Emax at 50 µM [5]: 100 ± 7%

SMILES: Cc1ncsc1-c1ccc(CNC(=O)[C@@H]2C[C@@H](O)CN2C(=O)[C@@H](NC(=O)OC(C)(C)C)C(C)(C)C)cc1 [Inhibitor 2]
GE (group efficiency) [1]: −0.41

SMILES: Cc1ncsc1-c1ccc(CNC(=O)[C@@H]2C[C@@H](O)CN2C(=O)[C@@H](NC(=O)CO)C(C)(C)C)cc1 [Inhibitor 3, (2S,4R)-4-Hydroxy-1-((S)-2-(2-hydroxyacetamido)-3,3-dimethylbutanoyl)-N-(4-(4-methylthiazol-5-yl)benzyl)pyrrolidine-2-carboxamide]
GE (group efficiency) [1]: −0.11
LE [6]: 0.27 kcal × mol^-1 × NHA^-1
LLE [6]: 6.28 kcal × mol^-1 × NHA^-1

SMILES: Cc1ncsc1-c1ccc(CNC(=O)[C@@H]2C[C@@H](O)CN2C(=O)[C@@H](NC(=O)CC(C)(C)C)C(C)(C)C)cc1 [Inhibitor 5, (2S,4R)-1-((S)-2-(3,3-Dimethylbutanamido)-3,3-dimethylbutanoyl)-4-hydroxy-N-(4-(4-methylthiazol-5-yl)benzyl)pyrrolidine-2-carboxamide]
GE (group efficiency) [1]: −0.12

SMILES: Cc1ncsc1-c1ccc(CNC(=O)[C@@H]2C[C@@H](O)CN2C(=O)[C@@H](NC(=O)C2CC2)C(C)(C)C)cc1 [Inhibitor 6, (2S,4R)-1-((S)-2-(Cyclopropanecarboxamido)-3,3-dimethylbutanoyl)-4-hydroxy-N-(4-(4-methylthiazol-5-yl)benzyl)pyrrolidine-2-carboxamide]
GE (group efficiency) [1]: −0.02
LE [6]: 0.26 kcal × mol^-1 × NHA^-1
LLE [6]: 5.68 kcal × mol^-1 × NHA^-1

SMILES: Cc1ncsc1-c1ccc(CNC(=O)[C@@H]2C[C@@H](O)CN2C(=O)[C@@H](NC(=O)C(F)(F)F)C(C)(C)C)cc1 [Inhibitor 7, (2S,4R)-1-((S)-3,3-Dimethyl-2-(2,2,2-trifluoroacetamido)butanoyl)-4-hydroxy-N-(4-(4-methylthiazol-5-yl)benzyl)pyrrolidine-2-carboxamide]
GE (group efficiency) [1]: −0.08

SMILES: Cc1ncsc1-c1ccc(CNC(=O)[C@@H]2C[C@@H](O)CN2C(=O)[C@@H](NC(=O)C(Cl)(Cl)Cl)C(C)(C)C)cc1 [Inhibitor 8, (2S,4R)-1-((S)-3,3-Dimethyl-2-(2,2,2-trichloroacetamido)butanoyl)-4-hydroxy-N-(4-(4-methylthiazol-5-yl)benzyl)pyrrolidine-2-carboxamide]
GE (group efficiency) [1]: −0.04

SMILES: Cc1ncsc1-c1ccc(CNC(=O)[C@@H]2C[C@@H](O)CN2C(=O)[C@@H](NC(=O)C2(F)CC2)C(C)(C)C)cc1 [Inhibitor 10, (2S,4R)-1-((S)-2-(1-Fluorocyclopropanecarboxamido)-3,3-dimethylbutanoyl)-4-hydroxy-N-(4-(4-methylthiazol-5-yl)benzyl)pyrrolidine-2-carboxamide]
Papp at 5 h, 10 μM [7]: 2.71 ×10⁻⁶ cm/s
Dissociative t1/2 ([8]; 10°C (first value of cell)): 11.94 ± 0.08 s
Dissociative t1/2 ([8]; 20°C (second value of cell)): 7.073 ± 0.007 s
Microsomal stability (intrinsic clearance) [2]: 2.9 mL/min/g
toxicity in colony formation assay [9]: a degree of cytotoxicity; also recorded: toxicity
toxicity in cell-proliferation assay [10]: notably decreased cell proliferation; also recorded: toxicity
fraction unbound [3]: 0.0002
Compound associated with cells [4]: 383.6 µM
Final free compound concentration in cells [4]: 0.071 µM

SMILES: Cc1ncsc1-c1ccc(CNC(=O)[C@@H]2C[C@@H](O)CN2C(=O)[C@@H](NC(=O)C2(C#N)CC2)C(C)(C)C)cc1 [Inhibitor 15, (2S,4R)-1-((S)-2-(1-Cyanocyclopropanecarboxamido)-3,3-dimethylbutanoyl)-4-hydroxy-N-(4-(4-methylthiazol-5-yl)benzyl)pyrrolidine-2-carboxamide]
Papp at 5 h, 10 μM [7]: 1.94 ×10⁻⁶ cm/s
Microsomal stability (intrinsic clearance) [2]: 3.1 mL/min/g
toxicity in colony formation assay [9]: no toxicity
fraction unbound [3]: 0.0007
Compound associated with cells [4]: 150.0 µM

SMILES: COCCc1ccc(OCC(O)CNC(C)C)cc1 (centres unmarked) [Metoprolol, reference compound]
fraction unbound [3]: 0.005

SMILES: Cc1ncsc1-c1ccc(CNC(=O)[C@@H]2C[C@H](O)CN2C(=O)[C@@H](NC(=O)C2(F)CC2)C(C)(C)C)cc1 [cis-10, (2S,4S)-1-((S)-2-(1-Fluorocyclopropanecarboxamido)-3,3-dimethylbutanoyl)-4-hydroxy-N-(4-(4-methylthiazol-5-yl)benzyl)pyrrolidine-2-carboxamide]
binding to VHL ([6]; ITC and FP binding curves, Figure 2): no longer binds to VHL
toxicity in colony formation assay [9]: a degree of cytotoxicity
toxicity in cell-proliferation assay [10]: a degree of cytotoxicity

SMILES: CC(C)NCC(O)COc1cccc2ccccc12 (centres unmarked) [propanolol, reference compound]
Compound associated with cells [4]: 2679.0 µM
